Results on 14 molecules are retold here after ChEMBL document CHEMBL1201862, “PubChem BioAssay data set” (2004).

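Grown in 96-well plates, cells were treated for 48 hours with each compound at five concentrations. Insufficient inhibition: endpoint recorded as highest concentration tested. GI50 = concentration required for 50% inhibition of growth.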 The source made the active and inactive calls. Cut-off read from the data, not from the text of the source: active = GI50 up to about 1.1 µM and inactive = higher. Bounds are passed on as bounds.

The GI50 is the concentration giving 50% growth inhibition.

Some test systems named below: HCT-15; SF-268; SN12C; NCI-H226; SK-MEL-5; UACC-257; U-251; M14; ACHN; HOP-92; RXF 393; SNB-19; SW-620; A549; K562; OVCAR-4; SR.
Common to all, as to assay: DTP human tumour cell line panel, 48 h

As to `O=C1OC2CCCC[C@@H]2C2C[C@]34CCCCC3[C@@H](C(=O)O4)C12` (stereo not given in full), the GI50 is above 100 µM in the assay with HCT-15; > 100 µM (inactive) in the assay on SF-268; > 100 µM (inactive) in the assay on SN12C; > 100 µM (inactive) in the assay with NCI-H226; > 100 µM (inactive) in the assay with SK-MEL-5; > 100 µM (inactive) with UACC-257. Besides, the GI50 in the assay on U-251, with M14, in the assay on ACHN, in the assay on HOP-92, in the assay on RXF 393 and in the assay on SNB-19 was > 100 µM (inactive) in each case. In addition, the GI50 with SW-620, with A549, with K562 and in the assay on OVCAR-4 was > 100 µM (inactive) throughout.

With `O=C1OC(c2ccccc2)=N/C1=C/NC(Cc1ccc(O)cc1)C(=O)O` (stereo not given), the GI50 is above 100 µM with HCT-15; > 100 µM (inactive) in the assay with SF-268; > 100 µM (inactive) in the assay with NCI-H226; > 100 µM (inactive) with SK-MEL-5; 73.5 µM (inactive) in the assay with UACC-257; > 100 µM (inactive) with U-251. For the same molecule, the GI50 in the assay on M14, in the assay on ACHN, in the assay on HOP-92, with RXF 393, in the assay on SNB-19 and in the assay with SW-620 was > 100 µM (inactive) throughout. Besides, the GI50 in the assay on A549, in the assay on K562 and in the assay with OVCAR-4 was > 100 µM (inactive) throughout.

In the case of `Cc1nn(C(=O)CC(=O)Nc2ccccc2Cl)c(C)c1/N=N/c1ccccc1Cl`, the GI50 with HCT-15 is above 100 µM; with SF-268, 85.7 µM (inactive); in the assay on SN12C, > 100 µM (inactive); in the assay with SK-MEL-5 it was > 100 µM (inactive); in the assay with UACC-257, > 100 µM (inactive); in the assay on U-251, > 100 µM (inactive). The GI50 with M14, in the assay on ACHN, with HOP-92, with SR, in the assay on RXF 393 and in the assay on SNB-19 was > 100 µM (inactive) each time. Also, the GI50 in the assay on SW-620, in the assay with A549, in the assay on K562 and with OVCAR-4 was > 100 µM (inactive) in each case.

Turning to `O=C(CC(=O)C(=O)CC(=O)OCc1ccccc1)OCc1ccccc1`, the GI50 was above 100 µM with HCT-15; 32.3 µM (inactive) in the assay with SF-268; 57.1 µM (inactive) in the assay with SN12C; 66.1 µM (inactive) in the assay with SK-MEL-5; 50.9 µM (inactive) in the assay with U-251; > 100 µM (inactive) with M14. Further, the GI50 is 58.1 µM (inactive) in the assay with HOP-92; 70.8 µM (inactive) in the assay with SR; 75 µM (inactive) with RXF 393; 43.4 µM (inactive) with SNB-19; 88.9 µM (inactive) with SW-620; 60.8 µM (inactive) with A549. In addition, the GI50 with K562 is 58.6 µM (inactive); in the assay on OVCAR-4, 50.5 µM (inactive).

In the case of `O=C(CC(=O)N1N=C(N2c3ccccc3Sc3ccccc32)CC1c1ccccc1)Nc1ccc(Cl)cc1` (stereo not given), the 50% growth inhibitory concentration (GI50) with HCT-15 is above 100 µM; in the assay with SF-268 it was > 100 µM (inactive); with SN12C it was > 100 µM (inactive); in the assay with SK-MEL-5 it was > 100 µM (inactive); in the assay with UACC-257 it was > 100 µM (inactive); with U-251 it was > 100 µM (inactive). Moreover, the GI50 in the assay with M14, with ACHN, in the assay with HOP-92, in the assay with RXF 393, in the assay with SNB-19 and with SW-620 was > 100 µM (inactive) in each case. Further, the GI50 with A549 was > 100 µM (inactive); with K562, > 10 µM (inactive); in the assay on OVCAR-4, > 100 µM (inactive).

On to `O=C(Nc1nc2ncn(CC(COc3ccccc3)OC(=O)c3ccccc3)c2c(=O)[nH]1)c1ccccc1` (stereo not given), for which the 50% growth inhibitory concentration (GI50) is above 100 µM in the assay with HCT-15; > 100 µM (inactive) in the assay with SN12C; > 100 µM (inactive) in the assay with NCI-H226; > 100 µM (inactive) in the assay with SK-MEL-5; > 100 µM (inactive) with UACC-257; > 100 µM (inactive) with U-251. For the same molecule, the GI50 is > 100 µM (inactive) in the assay with M14; > 100 µM (inactive) in the assay with ACHN; 58.5 µM (inactive) with SR; > 100 µM (inactive) with RXF 393; > 100 µM (inactive) in the assay on SNB-19; > 100 µM (inactive) in the assay with SW-620. Moreover, the GI50 in the assay on A549, in the assay on K562 and in the assay with OVCAR-4 was > 100 µM (inactive) in each case.

For `O=C1c2ccccc2C2(Br)C(=O)c3ccccc3C12` (stereo not given), the GI50 was above 100 µM in the assay with HCT-15; > 100 µM (inactive) in the assay with SF-268; > 100 µM (inactive) in the assay with SN12C; > 100 µM (inactive) in the assay on SK-MEL-5; > 100 µM (inactive) in the assay with UACC-257; > 100 µM (inactive) in the assay on U-251. Moreover, the GI50 in the assay with M14, with ACHN, with HOP-92, in the assay on RXF 393, in the assay with SW-620 and in the assay on A549 was > 100 µM (inactive) throughout. In addition, the GI50 in the assay on K562 and with OVCAR-4 was > 100 µM (inactive) each time.

Consider `COc1cc(C(=O)C/C(CCC(=O)Nc2ccccc2[N+](=O)[O-])=N\NC(=O)CC#N)ccc1O`, for which the GI50 is above 100 µM in the assay on HCT-15; > 100 µM (inactive) in the assay on SF-268; > 100 µM (inactive) in the assay on SN12C; > 100 µM (inactive) with NCI-H226; > 100 µM (inactive) in the assay on SK-MEL-5; > 100 µM (inactive) in the assay on UACC-257. The GI50 in the assay with M14, with ACHN, with RXF 393, in the assay on SNB-19, in the assay with SW-620 and in the assay on A549 was > 100 µM (inactive) in each case. Besides, the GI50 in the assay with K562 and in the assay with OVCAR-4 was > 100 µM (inactive) each time.

Regarding `O=C1CC(C[C@H](O)C2CCCCC2O)CC(=O)N1Cc1ccccc1` (stereo not given in full), the GI50 in the assay with SF-268, with SN12C, in the assay with NCI-H226, with SK-MEL-5, in the assay on UACC-257 and with U-251 was > 100 µM (inactive) throughout. Further, the GI50 in the assay on M14, in the assay with ACHN, in the assay on SR, in the assay on RXF 393, in the assay with SNB-19 and in the assay with SW-620 was > 100 µM (inactive) throughout. The GI50 with A549, with K562 and with OVCAR-4 was > 100 µM (inactive) in each case.

`C[N+]1(C)C/C(=C\c2ccccc2)C(=O)/C(=C/c2ccccc2)C1`: the GI50 was above 100 µM in the assay with HCT-15; > 100 µM (inactive) in the assay on SF-268; 18.5 µM (inactive) in the assay with SN12C; > 100 µM (inactive) in the assay on NCI-H226; 72.8 µM (inactive) in the assay on SK-MEL-5; > 100 µM (inactive) with UACC-257. Besides, the GI50 was 31.4 µM (inactive) with U-251; > 100 µM (inactive) with M14; > 100 µM (inactive) in the assay on ACHN; > 100 µM (inactive) in the assay on HOP-92; 63 µM (inactive) in the assay on SR; > 100 µM (inactive) in the assay on RXF 393. In addition, the GI50 is > 100 µM (inactive) in the assay on A549, 62.2 µM (inactive) in the assay with K562 and > 100 µM (inactive) in the assay on OVCAR-4.

For the molecule `COC(=O)C1(C(C)C)CCc2c(OC)ccc(OC)c2C1=O` (stereo not given), the GI50 in the assay on HCT-15 is above 100 µM; in the assay with SF-268, > 100 µM (inactive); in the assay with SN12C, > 100 µM (inactive); in the assay with SK-MEL-5, > 100 µM (inactive); in the assay with UACC-257, > 100 µM (inactive); in the assay with U-251 it was > 100 µM (inactive). In addition, the GI50 with M14, in the assay with ACHN, in the assay with SNB-19, with SW-620, with A549 and in the assay on K562 was > 100 µM (inactive) each time. In addition, in the assay on OVCAR-4, the GI50 was 96.6 µM (inactive).

In the case of `NCCNCCNCc1c2ccccc2c(CNCCNCCN)c2ccccc12`, the GI50 in the assay with HCT-15 was above 100 µM; in the assay on SF-268 it was 69.5 µM (inactive); in the assay with SN12C it was 58.2 µM (inactive); in the assay with NCI-H226, 50.1 µM (inactive); with SK-MEL-5 it was > 100 µM (inactive); in the assay with UACC-257, > 100 µM (inactive). The GI50 is 51.6 µM (inactive) in the assay on U-251; > 100 µM (inactive) in the assay with M14; > 100 µM (inactive) with ACHN; 22.3 µM (inactive) with HOP-92; 31.3 µM (inactive) in the assay on SR; 40.9 µM (inactive) with RXF 393. Further, the GI50 in the assay on SW-620 was 90.4 µM (inactive); in the assay with A549, 79.3 µM (inactive); in the assay with K562, 25.4 µM (inactive); in the assay on OVCAR-4, 41.6 µM (inactive).

In the case of `CSC1(C)CC2C(CC1N1CCCCC1)C2(C)C` (stereo not given), the GI50 with HCT-15 is above 100 µM; in the assay on SF-268 it was > 100 µM (inactive); with SN12C, > 100 µM (inactive); with NCI-H226, > 100 µM (inactive); in the assay with UACC-257, > 100 µM (inactive); in the assay on U-251, > 100 µM (inactive). For the same molecule, the GI50 in the assay with M14, in the assay on ACHN, with HOP-92, in the assay with A549, in the assay with K562 and in the assay on OVCAR-4 was > 100 µM (inactive) in each case.

For the molecule `COc1cc2c3c(c1OC)C1(C=CC(=O)C=C1)C[C@H]3N(C)CC2` [PRONUCIFERINE], the GI50 with HCT-15 was above 100 µM; in the assay with SF-268, > 100 µM (inactive); in the assay on SN12C it was > 100 µM (inactive); in the assay with NCI-H226 it was > 100 µM (inactive); in the assay with SK-MEL-5, > 100 µM (inactive); in the assay on UACC-257 it was > 100 µM (inactive). The GI50 with U-251 is > 100 µM (inactive); in the assay on M14 it was > 100 µM (inactive); in the assay on ACHN, > 100 µM (inactive); with HOP-92, > 100 µM (inactive); with SR, > 100 µM (inactive); in the assay on RXF 393, 26 µM (inactive). Moreover, the GI50 in the assay with SNB-19, in the assay on SW-620 and in the assay with A549 was > 100 µM (inactive) each time.
